Assay results from patent US20230287316A1, “INTER-ORGAN PLATFORM WITH TISSUE-SPECIFIC NICHES FOR A MICROPHYSIOLOGICAL SYSTEM ON A CHIP” (THE TRUSTEES OF COLUMBIA UNIVERSITY IN THE CITY OF NEW YORK, priority 2020, published 2023).

Experiments:
[1] = test system: tumors engineered from non-metastatic OS cells; experiment: Linsitinib in bioengineered tumors from non-metastatic OS cells; format: cell-based, human; conditions: 12 µM, for 3 weeks
Procedure: (§1) We tested the drug Linsitinib—a potent tyrosine kinase inhibitor targeting the IGF-1 receptor (IGF-1R) —in metastatic and non-metastatic OS models (FIG. 17C). The drug was administered (12 µM, for 3 weeks), as per an ongoing Phase II Eurosarc trial in patients with advanced Ewing sarcoma.

[2] = test system: tumors from metastatic cells; experiment: Linsitinib in bioengineered tumors from metastatic OS cells; format: cell-based, human; conditions: 12 µM, for 3 weeks
Procedure: as §1

ES cell monolayers = experiment: Linsitinib dose response in ES cell monolayers (MTT and luminescence viability); format: cell-based, human; conditions: 0-100 µM over 72 hours
Procedure: (§2) MTT viability assay was used to determine drug toxicity, with luminescence generated by viable cells measured at the endpoint (10^4 cells per well, mean± s.e.m., n = 3). […] In order to determine cancer cell viability, cells were lysed and treated with luciferin using a Bright-Glo™ assay, with subsequent luminescence measured (10^4 cells per well, mean± s.e.m., n = 3).
(§3) Cell viability was analyzed using a previously established protocol.^59 Cancer cell viability was measured for GFP-Luciferase labelled cancer cells using ONE-Glo luciferase substrate that was prepared according to manufacturer’s protocol (Promega). Samples were collected following 3, 7, and 21 days cycles of linsitinib treatment. Where noted, longitudinal cell viability was also assessed using luminescence, though at the cost of signal strength. Briefly, in vivo grade VivoGlo™ Luciferin (Promega) was made at a 200x stock concentration (30 mg/ml) in water, added to sample culture media at a 1:200 dilution, and scanned using a spectrophotometer (Biotek). Some of the IC50 values were determined using cell viability data generated using an MTT assay (RealTime-Glo™ MT Cell Viability Assay, Promega) that were analyzed according to manufacturer’s protocol.

[3] = test system: non-metastatic RD-ES cell line; experiment: Linsitinib 12 µM on non-metastatic ES cell monolayers, luminescence viability; format: cell-based, human; conditions: 12 µM over 72 hours
Procedure: as §2
(§4) Both culture media were supplemented with 10% FBS and 1 % penicillin/streptomycin.
as §3

[4] = test system: metastatic SK-N-MC cell line; experiment: Linsitinib 12 µM on metastatic ES cell monolayers, luminescence viability; format: cell-based, human; conditions: 12 µM over 72 hours
Procedure: as §2, §4, §3

[5] = test system: metastatic TE-ES (SK-N-MC) bone tumor; experiment: Linsitinib on metastatic engineered ES bone tumors (TE-ES) cultured in isolation; format: cell-based, human; conditions: 12 µM
Procedure: (§5) FIGS. 32A-D show aspects of responses of human engineered bone ES tumors and cardiac tissues to linsitinib in isolated platform chambers. […] Luminescence as a function of cancer cell number and viability was measured (mean± s.e.m., n = 6 for day 3, and n = 3 for day 7 and 21).
Supernatants were collected from each individual sample across the duration of the drug treatments and were analyzed for osteoblast function (OCN, OPN) and for cytotoxicity (LDH) (mean± s.e.m., n = 3).
Two weeks following the initiation of osteogenic differentiation, aggregates of ES tumor cells were prepared as described previously, using 0.3 × 10^6 cells per aggregate. After 1 week of culture, corresponding to the end of bone tissue culture (3 weeks), the primary ES cell aggregates were placed into the engineered bone constructs (3 aggregates per construct, placed apart of each other). Tumor models were established for two different types of primary ES cells: non-metastatic (RD-ES) and metastatic (SK-N-MC). Tissue engineered RD-ES and SK-N-MC tumors were cultured in the RPMI and EMEM media, respectively, supplemented with 10% FBS and 1% penicillin/streptomycin. Bone constructs cultured without tumor cell aggregates (TE-bone) in RPMI and EMEM media were used as controls.
as §3
(§6) Osteocalcin (OCN), osteopontin (OPN), and lactic acid dehydrogenase (LDH) secreted levels were all measured using a similar approach. Supernatants were isolated from controls and drug treated TE-ES and equal amounts were used in each assay according to the manufacturer’s instructions. For OCN a Human Osteocalcin Quantikine^R ELISA (R&D Systems) was used, while for OPN it was a Human Osteopontin Quantikine^R ELISA (R&D Systems). LDH secretion was determined using a Lactate Dehydrogenase Assay Kit (Colorimetric; Abcam).

[6] = test system: engineered cardiac tissues; experiment: Linsitinib on engineered cardiac tissues cultured in isolation; format: cell-based, human; conditions: isolated
Procedure: as §5
Specifically, linsitinib was dissolved at a 10 mM concentration in DMSO (Corning) and mixed in with the respective cell medium at a […] concentration unless otherwise noted. Vehicle treatments involved just the addition of DMSO at identical volumes as a control. Tissues were randomly assigned to experimental groups. Medium was changed every day.
(§7) To measure the cardiac contractility online, we took contractility videos of the tissues that were analyzed using the native MATLAB code we previously developed. Tissue contractility was measured by tracking the change in tissue area as a function of time. Acquired video frames were inverted and an automated intensity threshold was used to identify cell location in the video frame. First, a baseline time point in the video corresponding to a relaxed tissue state was selected. Absolute differences in cell area from the baseline frame were then calculated to create a time course of cell area changes over time. The resulting time courses were analyzed using a native MATLAB (MATHWorks) automated peak finding algorithm to determine locations of maximum cell contractions in the time profiles. Beat period lengths were determined from the length of time between the pairs of local maxima, and the beat frequencies were determined by inverting beat periods. The rate of proarrhythmic events was calculated by the ratio of the number of proarrhythmic events over the total number of beats.

[7] = test system: non-metastatic ES bone tumor tissues; experiment: Linsitinib on non-metastatic ES bone tumor in the integrated platform with microfluidic perfusion; format: cell-based, human; conditions: 12 µM
Procedure: as §3, §6

cardiac tissues = experiment: Linsitinib on cardiac tissue in the integrated platform with microfluidic perfusion; format: cell-based, human
Procedure: The TE-ES and cardiac tissues were then cultured in the integrated platform with perfusion of mixed media. Linsitinib was introduced into the reservoir and delivered to tissues via circulation of perfusate and diffusion into the tissues.
FIGS. 35A-E show aspects of responses of human engineered bone ES tumors and cardiac tissues to linsitinib in the integrated platform with microfluidic perfusion. FIGS. 35A and 35B show the responses when non-metastatic ES bone tumors and cardiac tissues were exposed to linsitinib (12 µM) over a period of 72 hours in either isolated culture or within the perfused integrated platform. Luminescence (FIG. 35A) and LDH secretion (FIG. 35B) as functions of cancer cell number and viability as well as cytotoxicity, respectively, were measured (mean± s.e.m., n = 3).
as §7

[8] = cited from earlier work
[9] = clinical trials of other types of cancer

## C[C@]1(O)C[C@@H](c2nc(-c3ccc4ccc(-c5ccccc5)nc4c3)c3c(N)nccn32)C1 [linsitinib]
[1]
  tumor viability: significant viability reduction
[2]
  tumor viability: no effect
ES cell monolayers
  IC50 (MTT viability assay): two orders of magnitude lower than the effective plasma concentration observed in patients
ES cell monolayers; Homo sapiens, GFP-luciferase cells, read-out: IC50 (luminescence as a proxy for cell viability)
  IC50: ~12 µM
[3]
  drug efficacy (luminescence viability): significant drug efficacy
[4]
  drug efficacy (luminescence viability): significant drug efficacy
[5]; 3-week regimen, supernatants
  LDH secretion (cytotoxicity): spiked
  Osteocalcin secretion: decreased
[5]; 21-day clinical treatment regimen
  cancer cell population (luminescence): decrease in drug efficacy, as the cancer cell population continued to expand over the 21-day treatment cycle
[5]; after 3 days
  drug response (luminescence): significant drug response
[5]; throughout the 21 days
  osteopontin secretion: decreased similar to osteocalcin
[6]; 12 µM, after 3 days of exposure
  beating frequency: increased beating frequency
[6]; 12 µM
  rate of proarrhythmic events per beat: around 36%
[6]; after 12 µM linsitinib
  response to subsequent isoproterenol exposure: the inotropic response was not observed
[7]; 3 days, directly into the TE-ES tissue chamber
  drug response (luminescence), immediate exposure: fast response to the drug
[7]; 3 days, introduced into the circulation
  drug response (luminescence), diffused exposure: no response
[7]; 3 days, linsitinib into the reservoir
  drug response (luminescence): insignificant drug response
[7]; 72 hours
  Secretion of LDH, vehicle vs linsitinib treated: no significant difference
Cardiac tissues; 12 µM, integrated model
  rate of proarrhythmic events: approximately 11%
Cardiac tissues; 12 µM, integrated platform
  beat frequency: did not observe linsitinib-mediated changes in beat frequency
Cardiac tissues; after 12 µM linsitinib, integrated platform
  response to subsequent isoproterenol exposure: expected inotropic response
Cardiac tissues; integrated platform
  overall cardiotoxicity: mild cardiotoxicity
[8]; Phase II trial, patients with refractory or relapsed ES
  progression of ES in the clinical trial: unable to stop progression of ES
[8]; blood plasma, patients, read-out: Cmax clinical concentration
  Cmax: 12 µM
[8]; [9]
  atrial fibrillation: 3.75 - 5%
  tachycardia: 3.75-5 % of patients
[8]; known value
  half-life: approximately 5 hours
